Where two headings read alike, the source gives them in different places.
Columns and labels:
[1] = system: HepG2-A16-CD81 hepatocytes; assay: cells; parameters: Uninfected hepatocyte viability, CellTiter-Glo luminescence; conditions: sheet CDD Export 1;, cytotoxicity primary screen, read-out: Table S5. Liver stage reconfirmation data / HepG2 Cytotoxicity primary screen (2uM): % Inhibition
Method: For the screen, 5 μL of HepG2-A16-CD81 hepatocytes containing 3 × 10^3 cells was seeded into 1536-well plates, which had been prespotted with 10 nL of library compound (2 μM final assay concentration (Figure 1)) and incubated overnight. For PbLuc infected plates, approximately 750 purified sporozoites in 5 μL of screening media were added to each well and incubated for 48 h before measuring luciferase activity. Compounds were tested for toxicity in parallel (see Methods) by measuring uninfected hepatocyte viability using CellTiter-Glo. […] This hit rate was slightly lower than expected for an agnostic library, which prompted us to rescreen the entire library at 10 μM. The PbLuc and cytotoxicity assay plates for this second replicate would be stamped in-house with 50 nL of library compound per well, using the same compound plates as the sexual stage screen described below. All the assay parameters were kept similar, except the change in concentration and shortening the time the compounds spent in each well prior to infection. […] All potential false positive effectors from the CellTiter-Glo assay were filtered from subsequent studies (Table S1). Naturally, there were more primary hits from the 10 μM than the 2 μM screen due to the higher testing concentration. For reconfirmation, we sourced all the hits that inhibited PbLuc at >70% and mean HepG2 at <50% in the 2 μM screen or PbLuc at >60% in both 2 and 10 μM screens and mean HepG2 at <50%. The resulting compounds were acquired as DMSO stocks and retested in the dose response (50–2.82 × 10^–4 μM or 25–141.13 × 10^–6 μM) against PbLuc and uninfected hepatocytes (Table S5). […] The majority of these compounds were weak inhibitors, although 18 submicromolar hits were found (Table S5).

[2] = system: P. falciparum Dd2 (PfLuc) line expressing firefly luciferase, asexual blood stage; assay: microbe, parasite or virus in culture; format: cell-based, Plasmodium falciparum; conditions: Plasmodium falciparum
P. falciparum Dd2 = assay: SYBR green I asexual blood stage proliferation assay (96 h); format: cell-based, Plasmodium falciparum; conditions: Plasmodium falciparum, DD2, Sybr Green I, 11-pt dose response, 96hr

Compound	inhibition at 2 µM [1] [%]	other results
CC(C)(C)NC(=O)N1CCC(Oc2ccc(C(F)(F)F)cn2)CC1 [DDD01028321]	-4.73	
Nc1nc(CCC(=O)N2CCOC(CC3CCCCC3)C2)cs1 (stereo not drawn) [DDD01258215]	-10.6	
COc1cccc(CN2CCN(c3ccc4nncn4n3)C(C)C2)c1 (stereo not drawn) [DDD01301691]	-7.2	
COc1cccc(CNc2cc(C)nc(-c3ccncc3)n2)c1OC [DDD01073393]	-4.44	IC50 ([2]; DD2, read-out: CDD P. falciparum Luciferase ABS 11-pt Reconfirmation Dose Response (48hr): IC50 (μM), 11-pt dose response, 48hr): 4.09 µM; IC50 ([2]; DD2, 8-pt dose response, 96hr, read-out: CDD P. falciparum Luciferase ABS 8-pt Reconfirmation Dose Response (96hr): IC50): 0.56 µM; Emax ([2]; DD2, 8-pt dose response, 96hr, read-out: CDD P. falciparum Luciferase ABS 8-pt Reconfirmation Dose Response (96hr): Maximum inhibition (%)): 94.5%; Emax ([2]; DD2, 11-pt dose response, 48hr, read-out: CDD P. falciparum Luciferase ABS 11-pt Reconfirmation Dose Response (48hr): Maximum inhibition (%)): 80%; IC50 ([2]; DD2, 11-pt dose response, 96hr, read-out: CDD P. falciparum Luciferase ABS 11-pt Reconfirmation Dose Response (96hr): IC50): 0.0383 µM; Emax ([2]; DD2, 11-pt dose response, 96hr, read-out: CDD P. falciparum Luciferase ABS 11-pt Reconfirmation Dose Response (96hr): Maximum inhibition (%)): 98.2%; IC50 (P. falciparum Dd2; read-out: CDD P. falciparum Sybr Green I ABS 11-pt Reconfirmation Dose Response (96hr): IC50): 589 nM; Emax (P. falciparum Dd2; read-out: CDD P. falciparum Sybr Green I ABS 11-pt Reconfirmation Dose Response (96hr): Maximum inhibition (%)): 75.8%
CC(=O)Nc1ncc(S(=O)(=O)Nc2ccc3c(c2)OCCO3)s1 [DDD01037671]	-2.36	
CCc1ccc(-c2ncc3c(n2)N(C)CCN(CCN(C)C)C3=O)cc1 [DDD01235938]	4.38	
COc1cccc(CN2CCc3nc(C(=O)NCC(C)C)sc3CC2)c1 [DDD01030710]	-10.2	
Cc1ccoc1C(=O)NC1CCN(Cc2csc3c(F)cccc23)CC1 [DDD01304087]	-2.96	
CC(Nc1ncnc2c1CCNC2)c1ccc2c(c1)CCCC2 (stereo not drawn) [DDD01252547]	0.573	
CCc1cccc(N2CCC(NC(=O)c3ccco3)CC2)c1 [DDD01299802]	4.14	
Cn1cc(NS(=O)(=O)c2ccc(OC(F)(F)F)cc2)ccc1=O [DDD01303273]	-4.65	
CC(=O)c1ccc(N2CCC(CO)(CCOc3ccccc3)CC2)nc1 [DDD01258288]	17.5	
Cc1ncc(CN2CCOC(c3ccc(-c4ccccc4F)cn3)C2)s1 (stereo not drawn) [DDD01059493]	-6.23	
O=S(=O)(c1ccc(Cl)s1)N1CCN(Cc2nc(-c3ccco3)cs2)CC1 [DDD01027755]	12.1	
COC(=O)c1sc(NCc2ccc(N3CCC(O)CC3)c(F)c2)nc1Cl [DDD01073922]	5.85	
Cc1nc(N2CC[C@@H](NC(=O)c3cnccn3)[C@H](O)C2)c2ccsc2n1 [DDD01258299]	-14.6	
Fc1ccc(N2CCCN(c3ccc(Cn4ccnc4)cn3)CC2)cc1 [DDD01247581]	3.83	
CC(C)N(CC(N)=O)Cc1csc(COc2ccc(F)cc2)n1 [DDD01303358]	6.02	
N#Cc1c(Cl)nsc1NCc1cccnc1OCC(F)(F)F [DDD01067853]	4.29	

— PMC7155171, “Probing the Open Global Health Chemical Diversity Library for Multistage-Active Starting Points for Next-Generation Antimalarials” (ACS Infectious Diseases, 2020)
